# Laboratory results as given in ChEMBL document CHEMBL1149002, “Antineoplastic agents, 116. An evaluation of the marine ascidian Aplidium californicum” (1986).
# Experiments:
# Type in all cases: functional
# P388 [1] = assay: In vivo antineoplastic activity against mouse P388 cells assessed as life extension at 46 to 185 ug/kg
# P388 [2] = assay: In vivo antineoplastic activity against mouse P388 cells assessed as life extension at 46 to 92 ug/kg
# P388 [3] = assay: In vivo antineoplastic activity against mouse P388 cells assessed as life extension at 3.1 mg/kg
structure (smiles),measurement,setting,value
COC(=O)/C=C1/C[C@H]2C[C@]3(O)O[C@H](C[C@@H](O)CC(=O)O[C@@H]([C@@H](C)O)C[C@H]4C/C(=C\C(=O)OC)[C@H](OC(C)=O)[C@@](O)(O4)C(C)(C)/C=C/[C@@H](C1)O2)C[C@H](OC(=O)CC(C)C)C3(C)C [BRYOSTATIN 5],Activity,P388 [1],45%
CCCC(=O)O[C@H]1/C(=C/C(=O)OC)C[C@@H]2C[C@H]([C@@H](C)O)OC(=O)C[C@H](O)C[C@@H]3C[C@H](OC(=O)CC(C)C)C(C)(C)[C@](O)(C[C@@H]4C/C(=C/C(=O)OC)C[C@H](/C=C/C(C)(C)[C@]1(O)O2)O4)O3 [BRYOSTATIN 4],Activity,P388 [2],62%
CC(C)=CCc1cc(O)ccc1O [PRENYLHYDROQUINONE],Activity,P388 [3],38%
